Measured values reported in ChEMBL document CHEMBL3779796, “One-pot synthesis and antimicrobial evaluation of novel 3-cyanopyridine derivatives of (-)-β-pinene” (2016).
In brackets after ≈: the same amount, converted by molar mass.

Key:
Type in all cases: functional
Klebsiella aerogenes = experiment: Antimicrobial activity against Enterobacter aerogenes after 24 hrs by serial two-fold microbroth dilution method
Klebsiella pneumoniae = experiment: Antimicrobial activity against Klebsiella pneumoniae after 24 hrs by serial two-fold microbroth dilution method
Candida albicans = experiment: Antimicrobial activity against Candida albicans after 48 hrs by serial two-fold microbroth dilution method
[1] = test system: Staphylococcus epidermidis; experiment: Antimicrobial activity against Staphylococcus epidermidis after 24 hrs by serial two-fold microbroth dilution method
Staphylococcus aureus = experiment: Antimicrobial activity against Staphylococcus aureus after 24 hrs by serial two-fold microbroth dilution method

Row | SMILES | MIC (Klebsiella aerogenes) | MIC (Klebsiella pneumoniae) | MIC (Candida albicans) | MIC [1] | MIC (Staphylococcus aureus)
1 | CC1(C)[C@H]2Cc3c(nc(N)c(C#N)c3-c3ccc(F)c(F)c3)[C@@H]1C2 | 125 µg/mL (≈ 384 µM) | 125 µg/mL (≈ 384 µM) | 31.3 µg/mL (≈ 96.2 µM) | 125 µg/mL (≈ 384 µM) | > 125 µg/mL
2 | CC1(C)[C@H]2Cc3c(nc(O)c(C#N)c3-c3ccccc3Cl)[C@@H]1C2 | 62.5 µg/mL (≈ 192 µM) | 125 µg/mL (≈ 385 µM) | 125 µg/mL (≈ 385 µM) | 125 µg/mL (≈ 385 µM) | 125 µg/mL (≈ 385 µM)
3 | COc1ccc(-c2c(C#N)c(N)nc3c2C[C@H]2C[C@@H]3C2(C)C)cc1OC | > 125 µg/mL | > 125 µg/mL | 62.5 µg/mL (≈ 179 µM) | 125 µg/mL (≈ 358 µM) | > 125 µg/mL
4 | COc1cccc(-c2c(C#N)c(N)nc3c2C[C@H]2C[C@@H]3C2(C)C)c1 | 125 µg/mL (≈ 391 µM) | 125 µg/mL (≈ 391 µM) | 125 µg/mL (≈ 391 µM) | 125 µg/mL (≈ 391 µM) | 125 µg/mL (≈ 391 µM)
5 | Cc1ccc(-c2c(C#N)c(N)nc3c2C[C@H]2C[C@@H]3C2(C)C)cc1 | > 125 µg/mL | > 125 µg/mL | 125 µg/mL (≈ 412 µM) | > 125 µg/mL | > 125 µg/mL
6 | COc1ccccc1-c1c(C#N)c(O)nc2c1C[C@H]1C[C@@H]2C1(C)C | 125 µg/mL (≈ 390 µM) | 125 µg/mL (≈ 390 µM) | 62.5 µg/mL (≈ 195 µM) | 125 µg/mL (≈ 390 µM) | 125 µg/mL (≈ 390 µM)
7 | CC1(C)[C@H]2Cc3c(nc(N)c(C#N)c3-c3cccc(Br)c3)[C@@H]1C2 | 125 µg/mL (≈ 339 µM) | 125 µg/mL (≈ 339 µM) | 125 µg/mL (≈ 339 µM) | 125 µg/mL (≈ 339 µM) | > 125 µg/mL
8 | COc1cccc(-c2c(C#N)c(O)nc3c2C[C@H]2C[C@@H]3C2(C)C)c1 | 125 µg/mL (≈ 390 µM) | 125 µg/mL (≈ 390 µM) | 125 µg/mL (≈ 390 µM) | 62.5 µg/mL (≈ 195 µM) | 62.5 µg/mL (≈ 195 µM)
9 | CC1(C)[C@H]2Cc3c(nc(N)c(C#N)c3-c3ccccc3Cl)[C@@H]1C2 | 125 µg/mL (≈ 386 µM) | 125 µg/mL (≈ 386 µM) | 125 µg/mL (≈ 386 µM) | 125 µg/mL (≈ 386 µM) | 125 µg/mL (≈ 386 µM)
10 | COc1ccccc1-c1c(C#N)c(N)nc2c1C[C@H]1C[C@@H]2C1(C)C | > 125 µg/mL | > 125 µg/mL | 125 µg/mL (≈ 391 µM) | 125 µg/mL (≈ 391 µM) | > 125 µg/mL
11 | CC1(C)[C@H]2Cc3c(nc(O)c(C#N)c3-c3cccc(O)c3)[C@@H]1C2 | 62.5 µg/mL (≈ 204 µM) | 62.5 µg/mL (≈ 204 µM) | 62.5 µg/mL (≈ 204 µM) | 31.3 µg/mL (≈ 102 µM) | 62.5 µg/mL (≈ 204 µM)
12 | CC1(C)[C@H]2Cc3c(nc(N)c(C#N)c3-c3ccc(F)cc3)[C@@H]1C2 | 125 µg/mL (≈ 407 µM) | 125 µg/mL (≈ 407 µM) | 62.5 µg/mL (≈ 203 µM) | 125 µg/mL (≈ 407 µM) | > 125 µg/mL
13 | CC1(C)[C@H]2Cc3c(nc(N)c(C#N)c3-c3ccc(Br)cc3)[C@@H]1C2 | 125 µg/mL (≈ 339 µM) | 125 µg/mL (≈ 339 µM) | 62.5 µg/mL (≈ 170 µM) | 125 µg/mL (≈ 339 µM) | 125 µg/mL (≈ 339 µM)
14 | CC1(C)[C@H]2Cc3c(nc(N)c(C#N)c3-c3cccc(O)c3)[C@@H]1C2 | 125 µg/mL (≈ 409 µM) | 125 µg/mL (≈ 409 µM) | 125 µg/mL (≈ 409 µM) | 125 µg/mL (≈ 409 µM) | > 125 µg/mL
15 | CC1(C)[C@H]2Cc3c(nc(O)c(C#N)c3-c3cccc(Br)c3)[C@@H]1C2 | 62.5 µg/mL (≈ 169 µM) | 62.5 µg/mL (≈ 169 µM) | 31.3 µg/mL (≈ 84.8 µM) | 31.3 µg/mL (≈ 84.8 µM) | 62.5 µg/mL (≈ 169 µM)
16 | CC1(C)[C@H]2Cc3c(nc(N)c(C#N)c3-c3ccccc3)[C@@H]1C2 | > 125 µg/mL | > 125 µg/mL | 125 µg/mL (≈ 432 µM) | 125 µg/mL (≈ 432 µM) | > 125 µg/mL
17 | CC1(C)[C@H]2CCC(=O)[C@@H]1C2 | > 125 µg/mL | > 125 µg/mL | > 125 µg/mL | > 125 µg/mL | > 125 µg/mL
18 | NC[C@H]1O[C@H](O[C@H]2[C@H](O)[C@@H](O[C@H]3O[C@H](CO)[C@@H](O)[C@H](N)[C@H]3O)[C@H](N)C[C@@H]2N)[C@H](O)[C@@H](O)[C@@H]1O [KANAMYCIN] | 3.9 µg/mL (≈ 8.05 µM) | 2 µg/mL (≈ 4.13 µM) |  | 3.9 µg/mL (≈ 8.05 µM) | 2 µg/mL (≈ 4.13 µM)
19 | CO[C@H]1/C=C/O[C@@]2(C)Oc3c(C)c(O)c4c(O)c(c(/C=N/N5CCN(C)CC5)c(O)c4c3C2=O)NC(=O)/C(C)=C\C=C\[C@H](C)[C@H](O)[C@@H](C)[C@@H](O)[C@@H](C)[C@H](OC(C)=O)[C@@H]1C [RIFAMPIN] |  |  | 3.9 µg/mL (≈ 4.74 µM) |  | 

The remaining lines, values ahead:

Row | MIC (Klebsiella aerogenes) | MIC (Klebsiella pneumoniae) | MIC (Candida albicans) | MIC [1] | MIC (Staphylococcus aureus) | SMILES
20 | 62.5 µg/mL (≈ 203 µM) | 62.5 µg/mL (≈ 203 µM) | 31.3 µg/mL (≈ 102 µM) | 15.6 µg/mL (≈ 50.6 µM) | 31.3 µg/mL (≈ 102 µM) | CC1(C)[C@H]2Cc3c(nc(O)c(C#N)c3-c3ccc(F)cc3)[C@@H]1C2
21 | 62.5 µg/mL (≈ 192 µM) | 62.5 µg/mL (≈ 192 µM) | 15.6 µg/mL (≈ 47.8 µM) | 15.6 µg/mL (≈ 47.8 µM) | 31.3 µg/mL (≈ 95.9 µM) | CC1(C)[C@H]2Cc3c(nc(O)c(C#N)c3-c3ccc(F)c(F)c3)[C@@H]1C2
22 | 62.5 µg/mL (≈ 174 µM) | 125 µg/mL (≈ 348 µM) | 62.5 µg/mL (≈ 174 µM) | 31.3 µg/mL (≈ 87.1 µM) | 62.5 µg/mL (≈ 174 µM) | CC1(C)[C@H]2Cc3c(nc(O)c(C#N)c3-c3ccc(Cl)cc3Cl)[C@@H]1C2
23 | 62.5 µg/mL (≈ 192 µM) | 62.5 µg/mL (≈ 192 µM) | 31.3 µg/mL (≈ 96.4 µM) | 31.3 µg/mL (≈ 96.4 µM) | 31.3 µg/mL (≈ 96.4 µM) | CC1(C)[C@H]2Cc3c(nc(O)c(C#N)c3-c3ccc(Cl)cc3)[C@@H]1C2
24 | 125 µg/mL (≈ 349 µM) | > 125 µg/mL | 125 µg/mL (≈ 349 µM) | 125 µg/mL (≈ 349 µM) | 125 µg/mL (≈ 349 µM) | CC1(C)[C@H]2Cc3c(nc(O)c(C#N)c3-c3ccc(C(F)(F)F)cc3)[C@@H]1C2
25 | > 125 µg/mL | > 125 µg/mL | 125 µg/mL (≈ 411 µM) | 125 µg/mL (≈ 411 µM) | 125 µg/mL (≈ 411 µM) | Cc1ccc(-c2c(C#N)c(O)nc3c2C[C@H]2C[C@@H]3C2(C)C)cc1
26 | 125 µg/mL (≈ 386 µM) | 125 µg/mL (≈ 386 µM) | 62.5 µg/mL (≈ 193 µM) | 125 µg/mL (≈ 386 µM) | 125 µg/mL (≈ 386 µM) | CC1(C)[C@H]2Cc3c(nc(N)c(C#N)c3-c3ccc(Cl)cc3)[C@@H]1C2
27 | > 125 µg/mL | > 125 µg/mL | 125 µg/mL (≈ 430 µM) | 125 µg/mL (≈ 430 µM) | 125 µg/mL (≈ 430 µM) | CC1(C)[C@H]2Cc3c(nc(O)c(C#N)c3-c3ccccc3)[C@@H]1C2
28 | 125 µg/mL (≈ 339 µM) | 62.5 µg/mL (≈ 169 µM) | 31.3 µg/mL (≈ 84.8 µM) | 62.5 µg/mL (≈ 169 µM) | 62.5 µg/mL (≈ 169 µM) | CC1(C)[C@H]2Cc3c(nc(O)c(C#N)c3-c3ccc(Br)cc3)[C@@H]1C2
